Where “and” joins values, the source holds several entries; their conditions need not be identical. Identical values can stand only once. Like-named read-outs stand apart in the source and are kept apart here.
How the values were obtained:
[1] = target: T1, human MOR signaling through GαoB (Homo sapiens, UniProt P35372); assay type: cell-based; settings: for Kb: read-out: KB (affinity of BMS-986122)
T1 construct: host or cells: HEK 293T, transient

[2] = target: T2, human MOR signaling through Gαz (Homo sapiens, UniProt P35372); assay type: cell-based; settings: Gαz, up to 10 μM, absence of any orthosteric agonist, no RGS20
T2 construct: host or cells: HEK 293T, transient

MOR = system: MOR; parameters: method as in Burford et al.; settings: endomorphin-1 as orthosteric agonist, allosteric ternary complex model; ref Burford et al.; cited from earlier work
[3] = target: T3, human MOR signaling through GαoA (Homo sapiens, UniProt P35372); assay type: cell-based
T3 construct: host or cells: HEK 293T, transient

[4] = target: T4, human MOR signaling through Gαi2^N346 K mutant (Homo sapiens, UniProt P35372); test: nanoBRET assay, MOR signaling through mutant Gαi2 N346K; assay type: cell-based; settings: orthosteric agonist 7-hydroxymitragynine, read-out: KB (affinity of BMS-986122)
T4 construct: host or cells: HEK 293T, transient
Experimental: (§1) Human embryonic kidney (HEK) 293T cells (ATCC, Manassas, VA) maintained and transfected as described in previous work, with some modifications. Cells were cultured on 0.01% poly-L-lysine (Millipore Sigma, Darmstadt, Germany)-coated 10 cm dishes in Dulbecco’s modified Eagle medium (GIBCO, Grand Island, NY) supplemented with 5% fetal bovine serum, 1% nonessential amino acids, 1 mM sodium pyruvate, and 100 U/mL penicillin/streptomycin, maintained in an incubator at 37 °C in a 5% CO2 atmosphere. Prior to transfection, 3.0 × 10^6 cells were reseeded onto Matrigel-coated (Corning, Inc., Corning NY) 6 cm dishes and incubated for 4 h at 37 °C and 5% CO2. […]
(§2) BRET measurements between mVenus-Gβ1γ2 and masGRK3ct-nLuc for nanoBRET, and Gγ-GFP2 and Gα-rLuc8 for TruPATH, were performed to determine agonist-dependent activation of each Gα protein of interest in the presence and absence of BMS-986122, in live HEK 293T cells. […] For TruPATH, cells were incubated for 30 min at 25 °C prior to luminescence emissions being read at 515 and 410 nm. […]
(§3) This form of the operational model was selected because all parameters are constrained by default to be equal for each data set except for τ, which had no constraints. […] Statistical significance between Δlog(τ) values for each Gα subunit were calculated via one-way ANOVA with Tukey’s posthoc analysis. […]

[5] = system: human MOR signaling through different Gα subunits; test: nanoBRET assay, comparison or average across Gα subunits; assay type: cell-based; settings: 7-hydroxymitragnine as agonist, 10 μM PAM, relative transduction coefficients compared between Gαi3 and GαoB
[6] = target: T5, human MOR signaling through Gαi2 (Homo sapiens, UniProt P35372); assay type: cell-based; settings: for Kb: read-out: KB (affinity of BMS-986122)
T5 construct: host or cells: HEK 293T, transient

[7] = target: T6, human MOR signaling through Gαz with RGS20 (Homo sapiens, UniProt P35372); test: nanoBRET assay, MOR signaling through Gαz with RGS20 (RGSz1) coexpression; assay type: cell-based; settings: RGS20 (RGSz1) co-expressed
T6 construct: host or cells: HEK 293T, transient

[8] = target: T7, human MOR signaling through Gαi3 (Homo sapiens, UniProt P35372); assay type: cell-based
T7 construct: host or cells: HEK 293T, transient

[9] = target: T8, human MOR signaling through Gαi3^K349R, E350G mutant (Homo sapiens, UniProt P35372); test: nanoBRET assay, MOR signaling through mutant Gαi3 K349R, E350G; assay type: cell-based; settings: orthosteric agonist 7-hydroxymitragynine, read-out: KB (affinity of BMS-986122)
T8 construct: host or cells: HEK 293T, transient
Experimental: as §1, §2, §3

[10] = target: T9, human MOR signaling through Gαi1 (Homo sapiens, UniProt P35372); assay type: cell-based
T9 construct: host or cells: HEK 293T, transient

[11] = target: T10, human MOR signaling through Gαi3-oBct (Homo sapiens, UniProt P35372); test: nanoBRET assay, MOR signaling through Gαi3-oBct chimera (C-terminus of GαoB); assay type: cell-based; settings: orthosteric agonist 7-hydroxymitragynine, read-out: KB (affinity of BMS-986122)
T10 construct: host or cells: HEK 293T, transient
Experimental: as §1, §2, §3

T9 sequence (P35372 whole entry): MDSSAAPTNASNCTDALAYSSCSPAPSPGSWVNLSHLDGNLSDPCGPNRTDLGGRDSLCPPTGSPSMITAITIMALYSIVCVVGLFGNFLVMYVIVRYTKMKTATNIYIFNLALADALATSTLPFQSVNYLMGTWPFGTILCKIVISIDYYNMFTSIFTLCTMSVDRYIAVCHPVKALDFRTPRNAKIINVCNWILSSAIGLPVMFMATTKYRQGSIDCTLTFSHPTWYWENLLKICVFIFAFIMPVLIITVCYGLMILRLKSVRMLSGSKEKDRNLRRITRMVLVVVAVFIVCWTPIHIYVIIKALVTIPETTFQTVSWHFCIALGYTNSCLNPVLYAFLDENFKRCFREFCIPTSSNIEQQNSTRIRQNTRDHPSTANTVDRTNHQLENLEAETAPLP
T9 sequence (P63096 2-354 partner limits assumed): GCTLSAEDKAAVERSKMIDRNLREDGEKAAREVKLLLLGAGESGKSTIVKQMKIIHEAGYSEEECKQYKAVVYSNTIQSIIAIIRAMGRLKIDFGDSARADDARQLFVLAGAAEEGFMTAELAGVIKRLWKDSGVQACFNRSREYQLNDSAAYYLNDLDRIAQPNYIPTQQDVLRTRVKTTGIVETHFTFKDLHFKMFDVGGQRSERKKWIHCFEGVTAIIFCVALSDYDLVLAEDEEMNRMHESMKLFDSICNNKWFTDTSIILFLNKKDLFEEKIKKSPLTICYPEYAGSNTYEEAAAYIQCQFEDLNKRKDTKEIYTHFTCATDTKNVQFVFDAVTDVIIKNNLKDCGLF
T5 sequence (P35372 whole entry): as the sequence (P35372 whole entry) above
T5 sequence (P04899 2-355 partner limits assumed): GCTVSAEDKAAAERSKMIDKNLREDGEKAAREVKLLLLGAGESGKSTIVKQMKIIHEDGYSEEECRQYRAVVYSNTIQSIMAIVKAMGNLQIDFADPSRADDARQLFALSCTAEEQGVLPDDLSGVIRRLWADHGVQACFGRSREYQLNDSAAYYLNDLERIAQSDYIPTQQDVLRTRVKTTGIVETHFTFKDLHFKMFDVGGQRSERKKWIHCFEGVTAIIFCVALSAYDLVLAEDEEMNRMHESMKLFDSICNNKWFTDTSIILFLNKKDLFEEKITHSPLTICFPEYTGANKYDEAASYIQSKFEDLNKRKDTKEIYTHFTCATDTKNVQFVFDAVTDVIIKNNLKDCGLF
T1 sequence (P35372 whole entry): as the sequence (P35372 whole entry) above
T1 sequence (P09471 2-354 isoform P09471-2 partner limits assumed): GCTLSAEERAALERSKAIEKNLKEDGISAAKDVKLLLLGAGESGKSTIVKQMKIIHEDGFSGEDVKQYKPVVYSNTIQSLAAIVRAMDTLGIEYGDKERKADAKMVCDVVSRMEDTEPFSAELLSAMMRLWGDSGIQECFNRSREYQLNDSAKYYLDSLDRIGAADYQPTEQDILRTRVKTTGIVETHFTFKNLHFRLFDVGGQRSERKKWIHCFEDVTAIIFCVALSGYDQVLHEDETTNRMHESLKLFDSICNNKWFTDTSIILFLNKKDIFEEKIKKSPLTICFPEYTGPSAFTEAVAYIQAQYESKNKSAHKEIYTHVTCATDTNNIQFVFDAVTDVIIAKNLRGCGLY
T7 sequence (P35372 whole entry): as the sequence (P35372 whole entry) above
T7 sequence (P08754 2-354 partner limits assumed): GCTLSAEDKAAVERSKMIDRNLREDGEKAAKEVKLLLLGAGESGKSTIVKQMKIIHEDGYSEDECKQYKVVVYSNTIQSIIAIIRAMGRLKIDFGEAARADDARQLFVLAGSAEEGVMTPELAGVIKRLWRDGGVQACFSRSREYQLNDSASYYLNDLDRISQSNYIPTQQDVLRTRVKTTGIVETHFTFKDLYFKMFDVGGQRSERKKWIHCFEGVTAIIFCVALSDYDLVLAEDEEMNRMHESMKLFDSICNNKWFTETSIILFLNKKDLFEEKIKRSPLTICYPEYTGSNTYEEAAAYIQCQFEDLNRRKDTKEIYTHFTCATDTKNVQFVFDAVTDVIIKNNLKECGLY
T3 sequence (P35372 whole entry): as the sequence (P35372 whole entry) above
T3 sequence (P09471 2-354 partner limits assumed): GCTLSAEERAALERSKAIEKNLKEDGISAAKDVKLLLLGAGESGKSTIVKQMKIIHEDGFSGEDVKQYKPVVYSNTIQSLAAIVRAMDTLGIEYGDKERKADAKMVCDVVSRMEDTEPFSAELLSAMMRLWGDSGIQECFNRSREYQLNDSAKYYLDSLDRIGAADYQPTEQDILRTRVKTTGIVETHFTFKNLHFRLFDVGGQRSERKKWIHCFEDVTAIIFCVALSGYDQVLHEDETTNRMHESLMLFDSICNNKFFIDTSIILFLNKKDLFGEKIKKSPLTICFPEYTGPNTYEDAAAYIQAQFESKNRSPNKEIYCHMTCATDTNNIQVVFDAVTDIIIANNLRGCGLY
T4 sequence (P35372 whole entry, stated change not applied): as the sequence (P35372 whole entry) above
T4 sequence (P04899 with tags, fused parts or gaps N347K partner): as the sequence (P04899 2-355 partner limits assumed) above, with N346K counted along it
T10 sequence (P35372 whole entry): as the sequence (P35372 whole entry) above
T10 sequence (P08754 with tags, fused parts or gaps K345A/N346K/K349R/E350G partner limits assumed): as the sequence (P08754 2-354 partner limits assumed) above, with K344A, N345K, K348R, E349G counted along it
T8 sequence (P35372 whole entry, stated change not applied): as the sequence (P35372 whole entry) above
T8 sequence (P08754 with tags, fused parts or gaps K349R/E350G partner): as the sequence (P08754 2-354 partner limits assumed) above, with K348R, E349G counted along it
T6 sequence (P35372 whole entry): as the sequence (P35372 whole entry) above
T6 sequence (P19086 2-355 partner limits assumed): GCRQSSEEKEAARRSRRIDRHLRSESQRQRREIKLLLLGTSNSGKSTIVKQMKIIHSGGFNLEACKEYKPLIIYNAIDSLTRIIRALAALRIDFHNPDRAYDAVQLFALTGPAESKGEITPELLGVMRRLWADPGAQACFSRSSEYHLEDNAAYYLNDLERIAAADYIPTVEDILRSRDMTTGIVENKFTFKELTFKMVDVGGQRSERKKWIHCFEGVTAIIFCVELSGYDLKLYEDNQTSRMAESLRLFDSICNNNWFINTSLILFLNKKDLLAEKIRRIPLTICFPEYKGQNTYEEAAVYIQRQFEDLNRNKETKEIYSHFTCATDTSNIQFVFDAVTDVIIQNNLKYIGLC
T2 sequence (P35372 whole entry): as the sequence (P35372 whole entry) above
T2 sequence (P19086 2-355 partner limits assumed): as the sequence (P19086 2-355 partner limits assumed) above

COc1ccc(C2SCCN2S(=O)(=O)c2ccc(Cl)cc2)cc1Br (stereo not drawn) [BMS-986122]
β (efficacy cooperativity factor of BMS-986122) [1]: 4.2 ± 0.8 | Kb ([1]; GαoB (WT), orthosteric agonist 7-Hydroxymitragynine): 0.54 ± 0.1 µM | Hill coefficient of R50 curve ([1]; GαoB, BMS-986122 titrated in presence of 10 μM 7-hydroxymitragynine): 3.0 | EC50 ([1]; GαoB, BMS-986122 titrated in presence of constant 10 μM 7-hydroxymitragynine, read-out: R50 (concentration of PAM which gives a half-maximal response)): 0.67 ± 0.11 µM | β (efficacy cooperativity factor of BMS-986122) ([1]; GαoB, orthosteric agonist 7-Hydroxymitragynine, functional allosteric model): 15 ± 4.2 | Response of PAM alone (allosteric agonism) ([1]; GαoB, up to 10 μM, absence of any orthosteric agonist): no response | Kb [1]: 0.62 ± 0.18 µM | Emax of PAM alone (allosteric agonism) [2]: 21 ± 2% | Affinity cooperativity factor α (MOR): 7.0 | Kb (MOR): 5 µM | α (affinity cooperativity factor of BMS-986122) [3]: 7.1 ± 1.0 and 4.3 ± 0.7 | β (efficacy cooperativity factor of BMS-986122) [3]: 4.2 ± 0.3 | β (efficacy cooperativity factor of BMS-986122) ([3]; GαoA, orthosteric agonist 7-Hydroxymitragynine, functional allosteric model): 12 ± 1.8 | Kb ([3]; GαoA, orthosteric agonist 7-Hydroxymitragynine, read-out: KB (affinity of BMS-986122)): 8 ± 0.2 µM | Response of PAM alone (allosteric agonism) ([3]; GαoA, up to 10 μM, absence of any orthosteric agonist): no response | Kb [4]: 0.69 ± 0.06 µM | ΔΔlog(τ)oB-i3 [5]: 0.708 | α (affinity cooperativity factor of BMS-986122) [6]: 5.9 ± 0.6 and 3.2 ± 0.3 | β (efficacy cooperativity factor of BMS-986122) [6]: 3.3 ± 0.3 | Kb ([6]; Gαi2 (WT), orthosteric agonist 7-Hydroxymitragynine): 3.1 ± 0.7 µM | β (efficacy cooperativity factor of BMS-986122) ([6]; Gαi2, orthosteric agonist 7-Hydroxymitragynine, functional allosteric model): 10 ± 2.8 | Response of PAM alone (allosteric agonism) ([6]; Gαi2, up to 10 μM, absence of any orthosteric agonist): no response | Kb [6]: 2.4 µM and 1.5 µM and 1.9 µM | Allosteric agonism of PAM alone with RGS20 co-expression [7]: effectively eliminate the allosteric agonism | Kb ([8]; Gαi3 (WT), orthosteric agonist 7-Hydroxymitragynine, read-out: KB (affinity of BMS-986122)): 2.3 ± 0.8 µM | β (efficacy cooperativity factor of BMS-986122) ([8]; Gαi3, orthosteric agonist 7-Hydroxymitragynine, functional allosteric model): 5.9 ± 1.1 | Response of PAM alone (allosteric agonism) ([8]; Gαi3, up to 10 μM, absence of any orthosteric agonist): no response | Kb [9]: 2.8 ± 0.4 µM | α (affinity cooperativity factor of BMS-986122) [10]: 5.0 ± 0.2 and 6.9 ± 0.9 | β (efficacy cooperativity factor of BMS-986122) [10]: 10 ± 0.8 | Response of PAM alone (allosteric agonism) ([10]; Gαi1, up to 10 μM, absence of any orthosteric agonist): no response | Kb ([10]; read-out: KB (affinity of BMS-986122)): 2.5 µM and 3.4 µM | Kb [11]: 0.7 ± 0.06 µM

Source: paper PMC12138978, “Mu Opioid Receptor Positive Allosteric Modulator BMS-986122 Confers Agonist-Dependent G Protein Subtype Signaling Bias” (Biochemistry, 2025)
